Test results: patent US11865098B1, “Methods and compositions for treating excessive sleepiness” (Axsome Malta Ltd., priority 2017, dated 2024)

How the values were obtained:
Assay type in all cases: in vivo, human
[1] = tested on: adults with OSA and excessive sleepiness; assay: PGI-C and CGI-C, phase 3 randomized withdrawal study in OSA; details: Double-Blind Withdrawal Phase, switched to placebo compared with stayed on APC
Procedure: (§1) The study was a double-blind, placebo-controlled, enriched, randomized withdrawal design (FIG. 1). In the Titration Phase (weeks 1-2), patients started on a once-daily dose of APC 75 mg and could be titrated up or down every 3 days to reach a maximum tolerated dose of APC 75, 150, or 300 mg. In the Stable-Dose Phase (weeks 3-4), patients continued to receive the dose that they were titrated to in the Titration Phase for 2 weeks. […]
(§2) Efficacy was based on change from week 4 to 6 on the co-primary endpoints of MWT and ESS and percentage of patients reported as improved on the PGI-C and Clinician Global Impression of Change (CGI-C); assessed on a 7-point scale from 1 (very much improved) to 7 (very much worse).
(§3) MWT and ESS data were analyzed using a mixed-effect model repeated measures (MMRM); PGI-C and CGI-C were evaluated using a chi-square test. […] Safety and tolerability were evaluated based on treatment-emergent adverse events (TEAEs), vital signs, and laboratory values.

[2] = tested on: adult patients with OSA and ES; assay: ESS, 12-week placebo-controlled parallel study in OSA; details: 37.5, 75, 150, 300 mg; week 12
Procedure: The ESS is a subjective sleepiness test that is well known in the art and routinely used to measure the sleepiness level of a subject. The scale is intended to measure daytime sleepiness through the use of a short questionnaire that asks the subject to rate his or her probability of falling asleep on a scale of increasing probability from 0 to 3 for eight different situations that most people engage in during their daily lives. The scores for the eight questions are added together to obtain a single number that estimates the subject's average sleep propensity (ASP). […]
The study was a 12-week, double-blind, placebo-controlled, parallel design study as described in greater detail in Example 1 (Schweitzer et al., Sleep 40(Abstract Supplement):A237. Abstract 0641 (2017)). […] The Functional Outcomes of Sleep questionnaire short version (FOSQ-10) (Chasens et al., Sleep 32(7):915 (2009)) evaluated the effects of ES on functioning. The Work Productivity and Activity Impairment questionnaire for Specific Health Problems (WPAI:SHP) (Reilly et al., Pharmacoeconomics 4(5):353 (1993); Reilly, Work Productivity and Activity Impairment Questionnaire: Specific Health Problem V2.0 (WPAI: SHP). www.reillyassociates.net/WPAI_SHP) evaluated work productivity impairment among employed patients and overall activity impairment outside of work among all patients for the past 7 days. […]

[3] = tested on: adults with OSA and excessive sleepiness; assay: Maintenance of Wakefulness Test (MWT), phase 3 randomized withdrawal study in OSA; details: for MWT mean sleep latency after 4 weeks of APC treatment: randomized patients, mITT, 75, 150 or 300 mg once daily
Procedure: The MWT is an objective test used to measure how alert a subject is during the day. The test consists of four sleep trials with two hours in between the trials. The first trial is performed 1.5-3 hours after the subject's normal wake-up time. Sensors are placed on the head, face, and chin to detect when the subject is asleep and awake during the test. The subject sits quietly in bed with his or her back and head supported by a pillow and is asked to sit still and look straight ahead while trying to stay awake as long as possible. Each trial lasts 40 minutes or until the subject is asleep for 90 seconds. Between trials, the subject stays out of bed and occupies himself or herself to remain awake. Falling asleep in an average of less than eight minutes is considered abnormal. About 40-60% of subjects with normal sleep stay awake for the entire 40 minutes of all four trials.
as §1, §2, §3

[4] = tested on: adult patients with OSA and ES; assay: WPAI:SHP work productivity and activity impairment, 12-week parallel study in OSA; details: 150 and 300 mg; week 12
Procedure: The study was a 12-week, double-blind, placebo-controlled, parallel design study as described in greater detail in Example 1 (Schweitzer et al., Sleep 40(Abstract Supplement):A237. Abstract 0641 (2017)). Patients were randomized (1:1:2:2:2) to APC 37.5, 75, 150, 300 mg, or placebo for 12 weeks, and were stratified by adherence or non-adherence with primary OSA therapy (adherent definition was use for ≥4 hours per night on >70% of nights). Two patient-reported measures were included as secondary efficacy outcomes to evaluate the effects of APC on functional status and work productivity and activity impairment at baseline and weeks 1, 4, 8, and 12. The Functional Outcomes of Sleep questionnaire short version (FOSQ-10) (Chasens et al., Sleep 32(7):915 (2009)) evaluated the effects of ES on functioning. The Work Productivity and Activity Impairment questionnaire for Specific Health Problems (WPAI:SHP) (Reilly et al., Pharmacoeconomics 4(5):353 (1993); Reilly, Work Productivity and Activity Impairment Questionnaire: Specific Health Problem V2.0 (WPAI: SHP). www.reillyassociates.net/WPAI_SHP) evaluated work productivity impairment among employed patients and overall activity impairment outside of work among all patients for the past 7 days. […]

NC(=O)OC[C@H](N)Cc1ccccc1 [JZP-110, (R)-2-amino-3-phenylpropyl carbamate]
Worsening of overall condition on the PGI-C and CGI-C [1]: Significantly higher percentages of patients who were switched to placebo experienced a worsening of their overall condition
Co-primary ESS endpoint [2]: met at all doses
Change in mean MWT sleep latency from week 4 to week 6 ([3]; Double-Blind Withdrawal Phase, patients who remained on JZP-110, P<0.0001 vs switched to placebo): -1.0 min
MWT mean sleep latency after 4 weeks of APC treatment ([3]; group increased from 12.3 at baseline): 29.0 min
MWT mean sleep latency after 4 weeks of APC treatment ([3]; group increased from 13.1 at baseline): 31.7 min
WPAI:SHP presenteeism, overall work impairment and activity impairment compared to placebo [4]: significantly decreased lower presenteeism, overall work impairment, and activity impairment
